Structures are written as SMILES.

The first test addresses T1, Interleukin-5 (Mus musculus) (UniProt P04401).
T1 sequence (whole entry): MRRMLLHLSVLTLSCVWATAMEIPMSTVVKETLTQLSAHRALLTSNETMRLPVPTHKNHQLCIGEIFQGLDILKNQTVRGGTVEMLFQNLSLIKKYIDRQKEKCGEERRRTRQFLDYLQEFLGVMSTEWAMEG
In words: Inhibition of IL-5 in mouse Y16 cells assessed as reduction in cell proliferation at 30 uM after 48 hrs by WST-1 assay relative to control. Format: cell-based.
As to `O=C(Nc1ccc(Cl)cc1)N(CCO)Cc1coc2cccc(OCC3CCCCC3)c2c1=O`, the inhibition was 4%.

Turning to `CC(C)(C)CCOc1cccc2occ(CN(CCO)C(=O)Oc3ccccc3)c(=O)c12`, the inhibition is 36%.

Take `CCCC(=O)N(CCO)Cc1coc2cccc(OCC3CCCCC3)c2c1=O`: the inhibition is 61%.

In the case of `CC(C)(C)CCOc1cccc2occ(CN(CCO)C(=O)Nc3ccccc3)c(=O)c12`, the inhibition amounted to 47%.

In the case of `CC(C)CCOc1cccc2occ(CN(CCO)C(=O)Nc3ccccc3)c(=O)c12`, the inhibition worked out at 35%.

`O=C(NCc1ccccc1)N(CCO)Cc1coc2cccc(OCC3CCCCC3)c2c1=O`: the inhibition is 95%.

Regarding `O=C(NCCCc1ccccc1)N(CCO)Cc1coc2cccc(OCC3CCCCC3)c2c1=O`, the inhibition worked out at 95%.

Take `CCNC(=O)N(CCO)Cc1coc2cccc(OCC3CCCCC3)c2c1=O`: the inhibition came out at 7%.

For the compound `O=C(Nc1ccccc1)N(CCO)Cc1coc2cccc(OCC3CCCCC3)c2c1=O`, the inhibition worked out at 61%.

Consider `COc1ccc(NC(=O)N(CCO)Cc2coc3cccc(OCC4CCCCC4)c3c2=O)cc1`, for which the inhibition was 80%.

For `CCCNC(=O)N(CCO)Cc1coc2cccc(OCC3CCCCC3)c2c1=O`, the inhibition is 15%.

For `CC(C)(C)CCOc1cccc2occ(CN(CCO)C(=O)Cc3ccccc3)c(=O)c12`, the inhibition was determined as 46%.

As to `O=C(NC1CCCCC1)N(CCO)Cc1coc2cccc(OCC3CCCCC3)c2c1=O`, the inhibition was 85%.

On to `CCC(=O)N(CCO)Cc1coc2cccc(OCC3CCCCC3)c2c1=O`, for which the inhibition was determined as 63%.

Consider `CC(C)NC(=O)N(CCO)Cc1coc2cccc(OCC3CCCCC3)c2c1=O`, for which the inhibition is 6%.

As to `O=C(Cc1ccccc1)N(CCO)Cc1coc2cccc(OCC3CCCCC3)c2c1=O`, the inhibition worked out at 95%.

As to `O=C(Oc1ccccc1)N(CCO)Cc1coc2cccc(OCC3CCCCC3)c2c1=O`, the inhibition came out at 84%.

As to `COc1ccc(CC(=O)N(CCO)Cc2coc3cccc(OCC4CCCCC4)c3c2=O)cc1`, the inhibition is 92%.

Turning to `CC(C)CCOc1cccc2occ(CN(CCO)C(=O)Oc3ccccc3)c(=O)c12`, the inhibition is 42%.

On to `CC(C)CCOc1cccc2occ(CN(CCO)C(=O)Cc3ccccc3)c(=O)c12`, for which the inhibition was 37%.

Consider `CCOC(=O)N(CCO)Cc1coc2cccc(OCC3CCCCC3)c2c1=O`, for which the inhibition was found to be 89%.

In a further test the target is T1, Interleukin-5 (Mus musculus). In words: Inhibition of IL-5 in mouse Y16 cells assessed as reduction in cell proliferation at 50 uM after 48 hrs by WST-1 assay relative to control. The class given is cell-based. (Formazan colour is commonly taken as a measure of viable cells.)
Turning to `O=c1c(-c2ccc(O[C@H]3O[C@@H](CO)[C@H](O)[C@@H](O)[C@@H]3O)cc2)coc2cc(O)cc(O)c12`, the inhibition was found to be 79.1%.

By inhibition is commonly meant the share of the control response that was lost under treatment.

Values taken from ChEMBL document CHEMBL4052709, “Novel analogs of N-acylhydroxyethylaminomethyl-4H-chromen-4-one scaffold as IL-5 inhibitors” (Bioorg Med Chem, 2017).
